Source: US12391737B2, “Soluble NPY2 receptor agonists” (Boehringer Ingelheim International GmbH, priority 2020, dated 2025)

Columns and labels:
[1] = biological target: T1, human NPY1 receptor (hY1R) (Homo sapiens, UniProt P25929); assay: HTRF cAMP Gi assay, hY1R; format: cell-based; settings: CHO-K1 cells
T1 construct: expressed in transfected cells; host or cells: CHO-K1
T1 sequence (P25929 1-384): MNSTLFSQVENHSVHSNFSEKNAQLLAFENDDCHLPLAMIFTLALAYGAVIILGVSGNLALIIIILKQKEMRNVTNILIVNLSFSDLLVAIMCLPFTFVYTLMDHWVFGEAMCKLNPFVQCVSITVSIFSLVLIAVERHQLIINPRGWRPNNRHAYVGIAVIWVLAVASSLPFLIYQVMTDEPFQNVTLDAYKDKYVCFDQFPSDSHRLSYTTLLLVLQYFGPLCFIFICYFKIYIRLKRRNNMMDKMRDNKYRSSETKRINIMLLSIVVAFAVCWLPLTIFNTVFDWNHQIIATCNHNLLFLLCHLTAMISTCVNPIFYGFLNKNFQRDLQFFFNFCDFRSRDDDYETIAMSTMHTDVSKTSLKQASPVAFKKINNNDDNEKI
Protocol: Briefly, the production of intracellular cAMP will generate a competition between unlabeled cAMP and exogenously added d2-cAMP for anti-cAMP antibodies conjugated to cryptate. CHO-K1 cells stably expressing the human NPY1, NPY2, NPY4 and NPY5 receptors were used with the cells brought to life from a frozen stock immediately before assay performance. 2000 cells per well were applied for all four NPY receptor subtype assays. A 384-well format was used applying a total volume of 20 μl using 5 μl cells, 2.5 μl peptide agonist, 2.5 μl forskolin and 5 μl of each of the fluorophores. […] Concentration-response evaluation of compounds was performed with 11 concentrations of agonist peptides (covering 3 decades). EC50 values were calculated by nonlinear regression using sigmoid concentration-response with variable slope.

NMRI mice = assay: Effect on acute food intake in normal NMRI mice; format: in vivo; settings: 5 nmol/kg subcutaneously once
Protocol: Male NMRI mice were obtained from Charles River (Charles River, Research Models & Services Germany GmbH) or from JanVier (JanVier Labs, France) at 5 weeks of age. […] Room temperature was controlled to 21° C.±1° C., with 60%±20% humidity.
Animals were transferred 5-7 days before the start of the study to a real-time food intake monitoring system, HM-2 system (MBRose, Denmark), to allow acclimatization to experimental conditions. As the animals were uniquely identified with microchips, each individual animal was identified by its microchip upon entry and exit from the food channel. Randomization of the mice for each study group (n=7-8) was based on body weight measured the day before the start of the study. A vehicle-treated (50 mM phosphate buffer pH7 with 5% Mannitol) group was included in each experiment. Six hours before the start of the night phase animals were fasted. One hour before the dark phase animals were dosed once subcutaneously (5 nmol/kg) with test peptide. […] The food intake of the treated groups was normalized (in %) to the average food intake of the group receiving vehicle (Table 7). Statistical significance was evaluated using One-way analysis of variance with Turkey's multiple comparison test. P<0.05 was considered statistically significant.

[2] = biological target: T2, Human Neuropeptide Y2 Receptor (Homo sapiens, UniProt P49146); assay: Radioligand binding competition assay (RLB); settings: Table 3, 125I-PYY(1-36) competition; read-out: Ki
T2 construct: purchased CHEMICON HTS066M
T2 sequence (P49146 1-381): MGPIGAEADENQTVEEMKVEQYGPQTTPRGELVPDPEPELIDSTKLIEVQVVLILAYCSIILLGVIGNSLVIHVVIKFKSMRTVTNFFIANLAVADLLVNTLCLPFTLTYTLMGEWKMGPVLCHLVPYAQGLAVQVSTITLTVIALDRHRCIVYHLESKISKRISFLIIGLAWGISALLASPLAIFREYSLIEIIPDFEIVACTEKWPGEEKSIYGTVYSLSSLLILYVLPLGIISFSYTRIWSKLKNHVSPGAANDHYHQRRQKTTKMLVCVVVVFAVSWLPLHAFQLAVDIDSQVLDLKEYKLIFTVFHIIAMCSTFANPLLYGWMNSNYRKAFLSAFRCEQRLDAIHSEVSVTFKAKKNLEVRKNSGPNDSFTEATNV
Outline: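 Displacement of radioligand is measured after 2 h at room temperature with receptor membranes in Mg2+/Ca2+ HEPES buffer, pH 7.4. Filter-bound radioactivity is counted and IC50 obtained from curve fitting.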

[3] = biological target: T2, Human Neuropeptide Y2 Receptor; assay: Activity (RLB binding) after incubation in solutions at different pH values; settings: apparent Ki of filtrate after incubation at pH8.1-8.2, assumed 10 mg/ml; read-out: RLB 8 (pH8.1-8.2)
Protocol: The filtration RLB assay was carried out in 96-well plates in a final volume of 100 μl per well. Freeze-dried test peptides were dissolved in 100% dimethyl sulfoxide (DMSO) to stock solutions of 1 mM and serial dilutions were performed in assay buffer (50 mM HEPES, 5 mM MgCl2, 1 mM CaCl2, pH 7.4) containing 0.2% ovalbumin. […] Next, 80 μL membranes (HTS066M, ChemiSCREEN™ Human Neuropeptide Y2 Receptor Membrane Preparation, CHEMICON) were added to each well to give a final protein concentration of 0.5 μg/well. The plates were sealed and incubated at room temperature for 2 hours in a plate shaker set at 400 rpm. The incubation was stopped by vacuum filtration onto 0.5% polyethylene amine (PE) presoaked GF/C filters using a 96-well FilterMate™ harvester (Perkin Elmer) followed by four washes with 300 μl/well ice-cold wash buffer (50 mM HEPES, 500 mM NaCl, pH7.4). Filter plates were then dried for 60 min at room temperature and the bottom of the plates was sealed with backing tape UniFilter-96. Finally, 50 μl/well scintillation counter cocktail (Microscint20, Packard) was added and the radioactivity was counted in the Packard TopCount NXT scintillation counter. IC50 values (the half maximal inhibitory concentration of the agonist) were calculated by nonlinear regression analysis of sigmoidal dose-response curves.
The peptide was (partially) dissolved by shaking the filter unit horizontally at approx. 400 rpm for 2 hours at room temperature. The sample was filtered to remove any insoluble particles.

[4] = biological target: T3, human NPY5 receptor (hY5R) (Homo sapiens, UniProt Q15761); assay: HTRF cAMP Gi assay, hY5R
T3 sequence (Q15761 1-445): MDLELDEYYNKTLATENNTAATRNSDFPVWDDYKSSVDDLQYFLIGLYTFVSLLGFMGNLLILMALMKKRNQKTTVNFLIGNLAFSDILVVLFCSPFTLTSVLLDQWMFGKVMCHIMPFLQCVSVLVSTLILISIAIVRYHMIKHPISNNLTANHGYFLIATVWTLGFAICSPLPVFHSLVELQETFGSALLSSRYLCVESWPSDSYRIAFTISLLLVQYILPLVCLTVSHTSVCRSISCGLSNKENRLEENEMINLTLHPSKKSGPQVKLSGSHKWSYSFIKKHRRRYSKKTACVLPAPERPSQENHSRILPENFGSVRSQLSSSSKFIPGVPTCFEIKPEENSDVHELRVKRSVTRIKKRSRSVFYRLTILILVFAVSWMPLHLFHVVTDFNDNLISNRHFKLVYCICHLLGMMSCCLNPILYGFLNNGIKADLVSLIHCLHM

Solubility determination = settings: for Sol6: pH 6; for Sol7: pH 7
Outline: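 Shake-flask style: 10 mg/ml peptide (TFA salt), 0.1 M sodium diphosphate pH 6.4/7.0, 600 rpm, 2 h, RT; filter; dilute 1 mg/ml in 50% MeCN; RP-UPLC, 0–100% B over 2 min, 50 °C. Solubility = sample/control area ratio. Final pH recorded.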

[5] = biological target: T4, human NPY4 receptor (hY4R) (Homo sapiens, UniProt P50391); assay: HTRF cAMP Gi assay, hY4R; format: cell-based; settings: CHO-K1 cells
T4 construct: expressed in transfected cells; host or cells: CHO-K1
T4 sequence (P50391 whole entry): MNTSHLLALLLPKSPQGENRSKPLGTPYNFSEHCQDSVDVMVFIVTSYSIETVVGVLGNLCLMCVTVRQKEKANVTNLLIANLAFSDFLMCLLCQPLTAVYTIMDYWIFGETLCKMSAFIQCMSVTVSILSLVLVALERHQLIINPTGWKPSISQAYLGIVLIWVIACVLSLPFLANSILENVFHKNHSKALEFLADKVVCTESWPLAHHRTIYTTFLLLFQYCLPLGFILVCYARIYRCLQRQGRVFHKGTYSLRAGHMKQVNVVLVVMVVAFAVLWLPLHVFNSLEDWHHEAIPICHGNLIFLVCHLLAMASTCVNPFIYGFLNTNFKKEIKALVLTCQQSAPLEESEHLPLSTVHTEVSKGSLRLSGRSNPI

EC50 [1] [nM] | Ki [2] [nM] | Ki [3] [nM] | EC50 [4] [nM] | Sol6 (Solubility determination) [mg/mL] | Sol7 (Solubility determination) [mg/mL] | EC50 [5] [nM] | Compound | Acute Food Intake 24 h [% vehicle] (NMRI mice)
> 5000 | 1.04 | 3.1 | > 5000 | 8.9 | 9.2 | > 5000 | CC[C@H](C)[C@H](NC(=O)[C@H](CCC(=O)O)NC(=O)[C@H](CCC(=O)O)NC(=O)[C@@H]1CCCN1C(=O)[C@@H](NC(=O)[C@H](C)NC(=O)[C@H](CC(=O)O)NC(=O)[C@H](C)NC(=O)[C@H](CCC(=O)O)NC(=O)[C@@H]1CCCN1C(=O)[C@H](CCCCNC(=O)CCCCCNC(=O)CC[C@H](NC(=O)CCCCCCCCCCCCCCCCC(=O)O)C(=O)O)NC(=O)[C@H](CCC(=O)O)NC(=O)[C@@H]1CCCN1C(=O)[C@H](C)NC(=O)CC(C)C)[C@@H](C)O)C(=O)N[C@@H](CCC(N)=O)C(=O)N[C@@H](CCCNC(=N)N)C(=O)N[C@@H](Cc1ccc(O)cc1)C(=O)N[C@@H](Cc1ccc(O)cc1)C(=O)N[C@H](C(=O)N[C@@H](CO)C(=O)N[C@@H](CC(C)C)C(=O)N[C@@H](CCCNC(=N)N)C(=O)N[C@@H](Cc1c[nH]cn1)C(=O)N[C@@H](Cc1ccc(O)cc1)C(=O)N[C@@H](Cc1ccc(O)cc1)C(=O)N[C@@H](CC(N)=O)C(=O)N[C@@H](Cc1c[nH]c2ccccc12)C(=O)N[C@@H](CC(C)C)C(=O)N[C@H](C(=O)N[C@@H](CCCNC(=N)N)C(=O)N[C@@H](CCC(N)=O)C(=O)N[C@@H](CCCNC(=N)N)C(=O)N[C@@H](Cc1ccc(O)cc1)C(N)=O)[C@@H](C)O)C(C)C [Compound 7, N{alpha-4}-(3-methylbutanoyl)-N{epsilon-7}-(6-[(4S)-4-carboxy-4-(17-carboxyheptadecanamido)butanamido]hexanoyl)[4A,7K,9E,10A,13T,17I,18Q,22V,28Y,30W,31L]-hPYY(4-36)] | 38
– | 5.64 | – | > 5000 | 9.2 | 9.1 | – | CC(C)CC(=O)N[C@@H](C)C(=O)N1CCC[C@H]1C(=O)N[C@@H](C)C(=O)N[C@@H](CCCCNC(=O)CCCCCNC(=O)CC[C@H](NC(=O)CCCCCCCCCCCCCCCCC(=O)O)C(=O)O)C(=O)N1CCC[C@H]1C(=O)N[C@@H](CCC(=O)O)C(=O)N[C@@H](CCC(=O)O)C(=O)N[C@@H](CC(=O)O)C(=O)N[C@@H](C)C(=O)N[C@H](C(=O)N1CCC[C@H]1C(=O)N[C@@H](CCC(=O)O)C(=O)N[C@@H](CCC(=O)O)C(=O)N[C@@H](CC(C)C)C(=O)N[C@@H](CCC(N)=O)C(=O)N[C@@H](CCCNC(=N)N)C(=O)N[C@@H](Cc1ccc(O)cc1)C(=O)N[C@@H](Cc1ccc(O)cc1)C(=O)N[C@H](C(=O)N[C@@H](CO)C(=O)N[C@@H](CC(C)C)C(=O)N[C@@H](CCCNC(=N)N)C(=O)N[C@@H](Cc1c[nH]cn1)C(=O)N[C@@H](Cc1ccc(O)cc1)C(=O)N[C@@H](Cc1ccc(O)cc1)C(=O)N[C@@H](CC(N)=O)C(=O)N[C@@H](Cc1c[nH]c2ccccc12)C(=O)N[C@@H](CC(C)C)C(=O)N[C@H](C(=O)N[C@@H](CCCNC(=N)N)C(=O)N[C@@H](CCC(N)=O)C(=O)N[C@@H](CCCNC(=N)N)C(=O)N[C@@H](Cc1ccc(O)cc1)C(N)=O)[C@@H](C)O)C(C)C)[C@@H](C)O [Compound 26, N{alpha-4}-(3-methylbutanoyl)-N{epsilon-7}-(6-[(4S)-4-carboxy-4-(17-carboxyheptadecanamido)butanamido]hexanoyl)[4A,6A,7K,9E,13T,18Q,22V,28Y,30W,31L]-hPYY(4-36)] | 53
